Consider nine molecules from PubChem BioAssay (NCI).

Structures are written as SMILES. “And” between values parts separate entries of the source, which are not always exact repeats. Equal entries are not always repeated.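 Results reflect a 48-hour exposure of cells in 96-well plates to compound at five concentrations. Here, GI50 denotes the concentration required for 50% inhibition of growth. At the TGI there is no net growth.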 A value given as a limit tells only on which side of the number the result lay.

Some test systems named below: NCI-H226 lung; CAKI-1 renal; A498 renal; SF-539 CNS; CCRF-CEM leukemia; TK-10 renal; SN12C renal; ACHN renal; UO-31 renal; HCC-2998 colon.
Assay in all cases: DTP human tumour cell line panel, 48 h

With `O=c1cccccc1[O-].O=c1cccccc1[O-].O=c1cccccc1[O-].[La+3]`, the TGI in the test with NCI-H226 lung was 99 µM; with CAKI-1 renal it was over 100 µM; in the test on A498 renal, 90.1 µM; with SF-539 CNS it was 38 µM; in the test on CCRF-CEM leukemia, 51.3 µM; in the test with TK-10 renal it was 67.9 µM. For the same molecule, the TGI in the test with SN12C renal is over 100 µM; in the test on ACHN renal it was over 100 µM; in the test on UO-31 renal, 65.8 µM; in the test on HCC-2998 colon it was over 100 µM. Besides, the GI50 with A498 renal is 23.6 µM; with SF-539 CNS it was 5.62 µM; in the test with SN12C renal it was 22.3 µM.

`CN1C(=O)C2C(C1=O)C1(O)c3ccccc3C2(N)c2ccccc21` (configuration not stated): the TGI with NCI-H226 lung, with CAKI-1 renal, in the test on A498 renal, in the test with SF-539 CNS, with CCRF-CEM leukemia and in the test on TK-10 renal was over 100 µM each time. Also, the concentration for total growth inhibition (TGI) in the test with SN12C renal, in the test with ACHN renal, in the test with UO-31 renal and with HCC-2998 colon was over 100 µM in each case.

Consider `CN(C)c1ccc(/C=c2\sc3nc4ccccc4n3c2=O)cc1`, for which the concentration for total growth inhibition (TGI) with NCI-H226 lung, in the test on CAKI-1 renal, with A498 renal, in the test on SF-539 CNS, in the test with TK-10 renal and in the test with SN12C renal was over 100 µM throughout. In addition, the TGI with ACHN renal, with UO-31 renal and in the test on HCC-2998 colon was over 100 µM in each case.

As for `Cn1cc(-c2ccc(-c3ccc(C4=NC5(CC5)C(=O)N4C[C@@H]4CCN(C(=O)C5CC5)C4)cc3)cc2)cn1`, the GI50 with NCI-H226 lung is 16 µM; with CAKI-1 renal it was 12.6 µM; in the test on A498 renal, 2.16 µM; in the test with SF-539 CNS, 10.7 µM; in the test with CCRF-CEM leukemia, 6.01 µM; with TK-10 renal, 24 µM. In addition, the GI50 was 17.5 µM with SN12C renal, 14.3 µM in the test with ACHN renal, 1.47 µM in the test on UO-31 renal and 15.2 µM in the test on HCC-2998 colon. In addition, the TGI in the test with NCI-H226 lung is 51.2 µM; with CAKI-1 renal, over 100 µM; with A498 renal, 23.7 µM; with SF-539 CNS, 32.1 µM; in the test with CCRF-CEM leukemia it was 42.5 µM; in the test with TK-10 renal, 81.2 µM. In addition, the TGI in the test on SN12C renal was 77.3 µM; with ACHN renal, over 100 µM; in the test on UO-31 renal, over 100 µM; with HCC-2998 colon, 29.9 µM.

Consider `CC12CCC(Br)C(C)(C)C1CC=C1C(=O)OCC1O2` (configuration not stated), for which the TGI was 23.2 µM in the test with NCI-H226 lung; 26.8 µM with CAKI-1 renal; 24.7 µM in the test with A498 renal; over 100 µM in the test on SF-539 CNS; 28.5 µM with TK-10 renal; over 55.9 µM in the test with SN12C renal. Moreover, the TGI was 26.2 µM with ACHN renal, over 42.6 µM with UO-31 renal and 24.9 µM in the test on HCC-2998 colon.

For `C[N+]1=C(/C=C\C=C\c2ccccc2)C(C)(C)c2ccccc21`, the GI50 was 4.33 µM with NCI-H226 lung; 3.82 µM in the test on CAKI-1 renal; 3.08 µM in the test with A498 renal; 2.59 µM with SF-539 CNS; 2.36 µM in the test with CCRF-CEM leukemia; 4.47 µM in the test with TK-10 renal. Moreover, the GI50 with SN12C renal was 0.863 µM; in the test with ACHN renal, 5.84 µM; in the test on UO-31 renal it was 3.49 µM; with HCC-2998 colon, 3.28 µM. Moreover, the TGI turned out to be 25.5 µM with NCI-H226 lung; 13.5 µM with CAKI-1 renal; 11.3 µM in the test with A498 renal; 7.57 µM in the test with SF-539 CNS; 7.76 µM in the test with CCRF-CEM leukemia; 15.7 µM in the test with TK-10 renal. For the same molecule, the TGI came out at 12.4 µM in the test with SN12C renal, 18.7 µM in the test on ACHN renal, 15 µM in the test with UO-31 renal and 14.9 µM in the test with HCC-2998 colon.

In the case of `COc1ccc2c(c1)C(=O)c1c-2n(CCCI)c(=O)c2cc([N+](=O)[O-])ccc12`, the GI50 with NCI-H226 lung was 0.671 µM and 0.89 µM; in the test with CAKI-1 renal, 0.472 µM and 0.309 µM; with A498 renal it was 0.609 µM and 0.157 µM; with SF-539 CNS it was 0.0962 µM and 0.0577 µM; in the test on CCRF-CEM leukemia, 0.0254 µM and 0.0153 µM; in the test with TK-10 renal, 33.1 µM and 19.4 µM. The GI50 is 0.105 µM and 0.312 µM in the test on SN12C renal; 0.138 µM and 0.0293 µM in the test with ACHN renal; 0.36 µM and 0.0716 µM with UO-31 renal; 0.63 µM and 0.797 µM in the test with HCC-2998 colon. Moreover, the TGI in the test with NCI-H226 lung was 6.02 µM and 14.7 µM; with CAKI-1 renal, 48.6 µM and 6.86 µM; in the test on A498 renal, 3.6 µM and 0.95 µM; in the test on SF-539 CNS it was 0.338 µM and 0.376 µM; with TK-10 renal, 50 µM and > 100 µM; in the test with ACHN renal, 1.03 µM and 0.239 µM. Also, the TGI in the test on UO-31 renal is 13.1 µM and 10.4 µM; with HCC-2998 colon, 6.41 µM and 21.9 µM.

As for `CCN1CCN(CC(=O)N2c3cccc4cccc(c34)N(C(=O)CN3CCN(CC)CC3)C2c2cn(-c3ccccc3)nc2-c2cccc([N+](=O)[O-])c2)CC1`, the GI50 with CAKI-1 renal is 1.4 µM; in the test on A498 renal, 0.49 µM; in the test on SF-539 CNS, 1.56 µM; with CCRF-CEM leukemia it was 1.15 µM; in the test with TK-10 renal, 1.88 µM; with SN12C renal, 1.49 µM. Also, the GI50 in the test on ACHN renal was 1.64 µM; with UO-31 renal, 1.34 µM; in the test with HCC-2998 colon it was 1.83 µM. Moreover, the TGI in the test on CAKI-1 renal was found to be 2.9 µM; in the test with A498 renal, 2.11 µM; in the test on SF-539 CNS it was 2.94 µM; in the test on CCRF-CEM leukemia it was 3.51 µM; in the test on TK-10 renal it was 3.69 µM; in the test on SN12C renal, 3.01 µM. In addition, the TGI was found to be 3.08 µM in the test with ACHN renal, 2.73 µM with UO-31 renal and 3.43 µM with HCC-2998 colon.

In the case of `NCCCNCCCCNC(=O)C(O)NC(=O)CCCCCCN=C(N)N` (configuration not stated), the GI50 in the test with NCI-H226 lung is 2430 µM; with CAKI-1 renal, 540 µM and > 3340 µM; with A498 renal, 1500 µM; with SF-539 CNS it was over 4070 µM; with CCRF-CEM leukemia, 1320 µM; in the test with TK-10 renal, over 4030 µM. The GI50 in the test with SN12C renal is 2040 µM; in the test on ACHN renal it was 2750 µM; in the test on UO-31 renal, 2980 µM; with HCC-2998 colon it was 2720 µM. In addition, the TGI with NCI-H226 lung was 750 µM and > 5000 µM; in the test with CAKI-1 renal, 710 µM and > 5000 µM; in the test with A498 renal, over 5000 µM; in the test on SF-539 CNS it was over 5000 µM; in the test on CCRF-CEM leukemia, 750 µM and > 3570 µM; in the test with TK-10 renal, over 5000 µM. In addition, the TGI is over 5000 µM with SN12C renal; over 5000 µM in the test on ACHN renal; 619 µM and > 5000 µM in the test on UO-31 renal; over 4260 µM in the test with HCC-2998 colon.

The term TGI denotes the concentration at which net growth stops. High values mean lower sensitivity of the cells, low ones greater sensitivity of the cells. Usually GI50 stands for the concentration giving 50% growth inhibition.
